The record followed here is paper PMC4102924 (Science translational medicine, 2013).

What is called Ki is a dissociation constant, usually derived from enzyme kinetics or from competition with a known ligand.

The assay has as its target PDK2 (pyruvate dehydrogenase kinase 2) (Homo sapiens, UniProt Q15119). Nature of the assay: radiometric kinase assay with recombinant PDK2. It counts as biochemical.

The structures appear in SMILES notation.

For `O=C(O)CCCc1ccccc1` [phenylbutyrate], the Ki came out at 330 ± 80 µM.
